Test results published in paper PMC12668308, “A Novel Antimalarial Agent that Inhibits Protein Synthesis in Plasmodium falciparum” (Angewandte Chemie (International Ed. in English), 2025).
Where two headings read alike, the source gives them in different places.

Assays:
[1] = tested on: Uncharacterized protein (W7JXH4); test: iSPP profiling, P. falciparum lysate; type: binding, Plasmodium falciparum
Experimental: P. falciparum NF54 lysates were extracted as described in ^[26^] . The parasite asynchronous culture was extracted once 3-5% parasitemia was reached. Saponin lysis was done as described in 2.2.10. Once the parasite pellet was obtained, 2.5 volumes of ice-cold lysis buffer (50 mM Tris/HCl pH 7.5 (Avantor), 5% glycerol (Sigma-Aldrich), 150 mM NaCl (Carl Roth), 1.5 mM MgCl2 (Sigma-Aldrich), 1 mM DTT (Carl Roth), 0.8% IGEPAL CA-630 (Sigma-Aldrich), 1X Halt Protease and Phosphatase Inhibitor-Cocktails EDTA-free (Thermo Fisher Scientific)) was added to the parasite pellet. The lysate solution was subjected to three cycles of flash freeze-thaw with liquid nitrogen and ddH2O at RT. The lysates were centrifuged at 20,000 g for 20 minutes at 4 °C. The soluble protein fraction (supernatant) was collected and the protein content was quantified using the BCA assay (Pierce™ BCA Protein Assay Kit, Thermo Fisher Scientific). The lysate was stored at -80 °C until further use.
The P. falciparum lysate was thawed on ice and diluted to 0.8 mg/mL. […] Subsequently, the samples were incubated at room temperature for 30 minutes using a rotating mixer. After distribution into a 96-well plate, the samples were treated with increasing concentrations of A.E.A. (v/v) ranging from 14% to 28% (14, 16, 18, 20, 22, 24, 26, and 28%). Following a 20-minute incubation at 37°C with shaking at 750 rpm, the samples were centrifuged at 4400 g for 35 minutes to remove precipitated proteins. The soluble fractions were then pooled in equal volumes into a single sample using the Bravo Automated Liquid Handling Platform. The pooled samples were subsequently prepared for LC-MS/MS analysis.
The raw LFQ-DIA intensity values of biological replicates across all conditions were normalized to the median abundance using Excel. The normalized values were then log2 transformed in Perseus (v2.0.10.0).^[58^] Missing values were imputed from a normal distribution (width 0.3, down shift 1.5), and p-values were obtained using a two-sample t-test over replicates with a permutation-based false discovery rate correction (FDR 0.05). Volcano plots were generated in RStudio using the EnhancedVolcano package (v. 1.20.0), ^[59^] plotting proteins by statistical significance (y-axis: –Log10 p-value) versus the magnitude of change (x-axis: log2 fold change of protein intensities for each compound condition relative to the vehicle control). The heatmap was generated in Perseus (v2.0.10.0). Dose-dependent curves were generated using normalized protein intensity values, expressed as a ratio to the vehicle control. Plots were created in GraphPad Prism (v8.3.0) using a nonlinear regression model.

[2] = tested on: P. falciparum NF54 strain; test: [3H]-hypoxanthine incorporation assay, asexual blood stage; type: cell-based, Plasmodium falciparum
In short: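 Parasites in human RBC were exposed to a 6-step twofold compound dilution in hypoxanthine-free medium (final parasitemia 0.3%, haematocrit 1.25%) at 37 °C under 3% O2/4% CO2. After 48 h, [3H]-hypoxanthine (0.25 µCi/well) was added for 24 h and uptake measured by scintillation counting. IC50 came from four-parameter curve fitting.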

[3] = Plasmodium falciparum, NF54, asexual blood stage, mean ± s.d., read-out: PfNF54 IC50 ± s.d.

SMILES | log2FC ([1]; 10 µM) | log2FC ([1]; 50 µM) | log2FC ([1]; 100 µM compound 31) | log2FC ([1]; 10^-2 µM) | log2FC ([1]; 10^-3 µM) | IC50 ratio relative to NF54 strain ([2]; NF54) | IC50 ([2]; Plasmodium falciparum, NF54, 72 h, Table S2, NF54 sensitive strain, 72-h assay, mean±s.d., read-out: IC50) | IC50 [2, 3] | IC50 ([2]; asexual blood stage, mean ± s.d., read-out: PfNF54 IC50 ± s.d.) | log2FC ([1]; 100 µM compound 34) | fold lower activity (control compound vs 31) ([2]; PfNF54 IC50)
CN1CCN(Cc2ccc(O)c(NC(=O)c3cccc(Oc4cc(C(F)(F)F)ccn4)c3)c2)CC1 [Compound 31, N-(2-hydroxy-5-((4-methylpiperazin-1-yl)methyl)phenyl)-3-((4-(trifluoromethyl)pyridin-2-yl)oxy)benzamide] | 1.06 | 0.61 | 0.70 | 0.54 | 0.61 | 1.00 | 1.8 ± 0.3 nM | < 5 nM | 3.9 nM |  | 
O=C(Nc1cc(CN2CCOCC2)ccc1F)c1cccc(Oc2cc(C(F)(F)F)ccn2)c1 [Compound 34, N-(2-Fluoro-5-(morpholinomethyl)phenyl)-3-((4-(trifluoromethyl)pyridin-2-yl)oxy)benzamide] |  |  |  |  |  |  |  | 3730 nM |  | 0.3904 | 1000 fold
